This note sets out measurements from patent publication EP4810052A2, “HCRHR2 SELECTIVE POLYPEPTIDES” (Gubra A/S, priority 2023, dated 2026).

Read-outs that look alike come from different tables or passages of the source. Starred links: 1 amine or outer side, 2 acyl side, 3 side chain; linkers in the order of their positions; H or OH if unused. Non-standard residues stand in square brackets, D forms with d. Residues, ends and D or L forms follow the SMILES beside them. Groups on a side chain read outwards from the residue. *: point of attachment. C20 diacid = O=C(O)CCCCCCCCCCCCCCCCCCC(=O)*; γGlu = O=C(O)[C@H](CCC(=O)[*:2])N[*:1]; NMeI = CC[C@H](C)[C@H](NC)C(=O)O; Nle = CCCC[C@H](N)C(=O)O; AEEA = NCCOCCOCC(=O)O; Aib = CC(C)(N)C(=O)O

One assay addresses T1, hCRHR2 (Homo sapiens, UniProt Q13324).
T1 sequence (Q13324 1-411): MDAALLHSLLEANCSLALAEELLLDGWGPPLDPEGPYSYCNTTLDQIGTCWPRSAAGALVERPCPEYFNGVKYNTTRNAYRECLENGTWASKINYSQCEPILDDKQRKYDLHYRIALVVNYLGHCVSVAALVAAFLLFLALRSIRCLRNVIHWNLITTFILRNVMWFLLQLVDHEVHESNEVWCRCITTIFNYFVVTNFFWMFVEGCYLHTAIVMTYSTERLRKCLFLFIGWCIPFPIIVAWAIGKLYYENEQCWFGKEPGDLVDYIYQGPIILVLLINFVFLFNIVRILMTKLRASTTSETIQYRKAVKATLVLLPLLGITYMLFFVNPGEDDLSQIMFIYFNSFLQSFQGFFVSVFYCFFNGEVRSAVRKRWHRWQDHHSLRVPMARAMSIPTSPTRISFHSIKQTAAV
Description: HTRF cAMP assay, determination of hCRHR2 potency (peptide libraries 5 conc., purified peptides 11 conc.). Type of assay: cell-based. An outline of the steps:
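CHO-K1 cells stably expressing human CRHR2, thawed from frozen stocks just before use and run in suspension; cAMP measured by competitive HTRF immunoassay (cryptate anti-cAMP, d2-cAMP). Agonist peptides tested at 5 (libraries) or 11 (purified) concentrations; EC50 from sigmoid variable-slope nonlinear regression.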
A general note: Time-resolved FRET reads energy transfer from a long-lived donor to a nearby acceptor.

Another assay addresses T2, hCRHR1 (Homo sapiens, UniProt P34998).
T2 sequence (P34998 24-415): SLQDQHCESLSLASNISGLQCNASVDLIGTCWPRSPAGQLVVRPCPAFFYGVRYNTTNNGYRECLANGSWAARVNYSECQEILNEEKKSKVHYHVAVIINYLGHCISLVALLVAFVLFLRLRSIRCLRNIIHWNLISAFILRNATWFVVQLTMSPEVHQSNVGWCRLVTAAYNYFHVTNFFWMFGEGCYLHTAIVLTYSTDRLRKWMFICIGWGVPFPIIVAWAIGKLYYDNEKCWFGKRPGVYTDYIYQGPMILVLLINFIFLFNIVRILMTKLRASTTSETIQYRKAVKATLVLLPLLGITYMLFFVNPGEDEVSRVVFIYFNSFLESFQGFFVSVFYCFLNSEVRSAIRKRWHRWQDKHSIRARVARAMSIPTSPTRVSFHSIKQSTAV
Description: HTRF cAMP assay, determination of hCRHR1 potency (peptide libraries 5 conc., purified peptides 11 conc.). Type of assay: cell-based. An outline of the steps:
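CHO-K1 cells stably expressing human CRHR1, thawed from frozen stocks just before use, were stimulated in suspension with agonist peptides. cAMP was measured by HTRF competitive immunoassay (cryptate anti-cAMP antibody vs d2-cAMP).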

Where [1] appears, read: Table 4, library peptides having X^38 = Nle, read-out: hCRHR2 pEC50 (converted).
The mark [2] stands for this setting: Table 4, library peptides having X^38 = Nle, read-out: hCRHR1 pEC50 (converted).

In the case of `CCCC[C@H](NC(=O)[C@@H](NC(=O)[C@H](CCC(=O)O)NC(=O)[C@H](C)NC(=O)[C@H](CC(N)=O)NC(=O)[C@@H](NC(=O)[C@H](CCCCNC(=O)COCCOCCNC(=O)COCCOCCNC(=O)CC[C@H](NC(=O)CC[C@H](NC(=O)CCCCCCCCCCCCCCCCCCC(=O)O)C(=O)O)C(=O)O)NC(=O)[C@H](C)NC(=O)[C@H](CCC(N)=O)NC(=O)[C@H](CCC(=O)O)NC(=O)[C@H](CCCNC(=N)N)NC(=O)[C@H](CCC(N)=O)NC(=O)[C@H](C)NC(=O)[C@H](CCC(N)=O)NC(=O)[C@H](C)NC(=O)[C@H](CCCNC(=N)N)NC(=O)[C@H](C)NC(=O)[C@H](CCC(N)=O)NC(=O)[C@H](CCC(=O)O)NC(=O)[C@H](CC(C)C)NC(=O)[C@H](CC(C)C)NC(=O)[C@@H](NC(=O)[C@H](CCC(N)=O)NC(=O)[C@H](CC(C)C)NC(=O)[C@H](CC(C)C)NC(=O)CNC(=O)[C@@H](NC(=O)[C@@H]1CCCN1C(=O)[C@@H](NC(=O)[C@H](CC(=O)O)NC(=O)[C@H](CC(C)C)NC(=O)[C@H](CO)NC(=O)[C@H](CC(C)C)NC(=O)[C@@H](NC(=O)[C@@H](N)[C@@H](C)CC)C(C)C)C(C)C)[C@@H](C)CC)[C@@H](C)CC)[C@@H](C)O)[C@@H](C)CC)C(=O)N[C@@H](C)C(=O)N[C@@H](CCC(=O)O)C(=O)N[C@H](C(N)=O)C(C)C` [SEQ ID NO: 32] (H-IVLSLDVPIGLLQILLEQARAQAQREQAK([AEEA-AEEA-γGlu-γGlu-C20 diacid])TNAEI[Nle]AEV-NH2), the EC50 is 0.316 nM at hCRHR2 (Table 3, matched molecular pairs X^38 L vs Nle, peptide library of Example 4, read-out: hCRHR2 pEC50 (converted)) and 25.1 nM at hCRHR1 (Table 3, matched molecular pairs X^38 L vs Nle, peptide library of Example 4, read-out: hCRHR1 pEC50 (converted)).

`CCCC[C@H](NC(=O)[C@@H](NC(=O)[C@H](CCC(=O)O)NC(=O)[C@H](C)NC(=O)[C@H](CC(N)=O)NC(=O)[C@@H](NC(=O)[C@H](CCCCNC(=O)COCCOCCNC(=O)COCCOCCNC(=O)CC[C@H](NC(=O)CC[C@H](NC(=O)CCCCCCCCCCCCCCCCCCC(=O)O)C(=O)O)C(=O)O)NC(=O)[C@H](C)NC(=O)[C@H](CCC(=O)O)NC(=O)[C@H](CCC(=O)O)NC(=O)[C@H](CCCNC(=N)N)NC(=O)[C@H](C)NC(=O)[C@H](C)NC(=O)[C@H](CCCNC(=N)N)NC(=O)[C@H](C)NC(=O)[C@H](CCCNC(=N)N)NC(=O)[C@H](C)NC(=O)[C@H](CCC(N)=O)NC(=O)[C@H](CCC(=O)O)NC(=O)[C@H](CC(C)C)NC(=O)[C@H](CC(C)C)NC(=O)[C@@H](NC(=O)[C@H](CCC(N)=O)NC(=O)[C@H](CC(C)C)NC(=O)[C@H](CC(C)C)NC(=O)CNC(=O)[C@@H](NC(=O)[C@@H]1CCCN1C(=O)[C@@H](NC(=O)[C@H](CC(=O)O)NC(=O)[C@H](CC(C)C)NC(=O)[C@H](CO)NC(=O)[C@H](CC(C)C)NC(=O)[C@@H](NC(=O)[C@@H](N)[C@@H](C)CC)C(C)C)C(C)C)[C@@H](C)CC)[C@@H](C)CC)[C@@H](C)O)[C@@H](C)CC)C(=O)N[C@@H](C)C(=O)N[C@@H](CCC(=O)O)C(=O)N[C@H](C(N)=O)[C@@H](C)CC` [compound 75] (H-IVLSLDVPIGLLQILLEQARARAAREEAK([AEEA-AEEA-γGlu-γGlu-C20 diacid])TNAEI[Nle]AEI-NH2): the EC50 at hCRHR2 (library peptides, matched molecular pairs L vs Nle in position X^38, read-out: Potency hCRHR2 pEC50 (converted)) was 0.794 nM; on hCRHR1 (library peptides, matched molecular pairs L vs Nle in position X^38, read-out: Potency hCRHR1 pEC50 (converted)), 158000 nM.

With `CCCC[C@H](NC(=O)[C@@H](NC(=O)[C@H](CCC(=O)O)NC(=O)[C@H](C)NC(=O)[C@H](CC(N)=O)NC(=O)C(C)(C)NC(=O)[C@H](CCCCNC(=O)COCCOCCNC(=O)COCCOCCNC(=O)CC[C@H](NC(=O)CC[C@H](NC(=O)CCCCCCCCCCCCCCCCCCC(=O)O)C(=O)O)C(=O)O)NC(=O)[C@H](C)NC(=O)[C@H](CCC(N)=O)NC(=O)[C@H](CCC(=O)O)NC(=O)[C@H](CCCNC(=N)N)NC(=O)[C@H](C)NC(=O)[C@H](C)NC(=O)[C@H](CCCNC(=N)N)NC(=O)[C@H](C)NC(=O)[C@H](CCCNC(=N)N)NC(=O)[C@H](C)NC(=O)[C@H](CCC(N)=O)NC(=O)[C@H](C)NC(=O)[C@H](CC(C)C)NC(=O)[C@H](CC(C)C)NC(=O)[C@@H](NC(=O)[C@H](CCC(N)=O)NC(=O)[C@H](CC(C)C)NC(=O)[C@H](CC(C)C)NC(=O)CNC(=O)[C@@H](NC(=O)[C@@H]1CCCN1C(=O)[C@@H](NC(=O)[C@H](CC(=O)O)NC(=O)[C@H](CC(C)C)NC(=O)[C@H](CO)NC(=O)[C@H](CC(C)C)NC(=O)[C@@H](NC(=O)[C@@H](NC)[C@@H](C)CC)C(C)C)C(C)C)[C@@H](C)CC)[C@@H](C)CC)[C@@H](C)CC)C(=O)N[C@@H](C)C(=O)N[C@@H](CCC(=O)O)C(=O)N[C@H](C(N)=O)C(C)C` [compound 119] (H-[NMeI]VLSLDVPIGLLQILLAQARARAAREQAK([AEEA-AEEA-γGlu-γGlu-C20 diacid])[Aib]NAEI[Nle]AEV-NH2), the figures for the EC50 on hCRHR2 (setting [1]) and on hCRHR1 (setting [2]) were 0.02 nM and 1000 nM, respectively.

With `CCCC[C@H](NC(=O)[C@@H](NC(=O)[C@H](CCC(=O)O)NC(=O)[C@H](C)NC(=O)[C@H](CC(N)=O)NC(=O)C(C)(C)NC(=O)[C@H](CCCCNC(=O)COCCOCCNC(=O)COCCOCCNC(=O)CC[C@H](NC(=O)CC[C@H](NC(=O)CCCCCCCCCCCCCCCCCCC(=O)O)C(=O)O)C(=O)O)NC(=O)[C@H](C)NC(=O)[C@H](CCC(N)=O)NC(=O)[C@H](CCC(=O)O)NC(=O)[C@H](CCCNC(=N)N)NC(=O)[C@H](C)NC(=O)[C@H](C)NC(=O)[C@H](CCCNC(=N)N)NC(=O)[C@H](C)NC(=O)[C@H](CCCNC(=N)N)NC(=O)[C@H](C)NC(=O)[C@H](CCC(N)=O)NC(=O)[C@H](CCCNC(=N)N)NC(=O)[C@H](CC(C)C)NC(=O)[C@H](CC(C)C)NC(=O)[C@@H](NC(=O)[C@H](CCC(N)=O)NC(=O)[C@H](CC(C)C)NC(=O)[C@H](CC(C)C)NC(=O)CNC(=O)[C@@H](NC(=O)[C@@H]1CCCN1C(=O)[C@@H](NC(=O)[C@H](CC(=O)O)NC(=O)[C@H](CC(C)C)NC(=O)[C@H](CO)NC(=O)[C@H](CC(C)C)NC(=O)[C@@H](NC(=O)[C@@H](NC)[C@@H](C)CC)C(C)C)C(C)C)[C@@H](C)CC)[C@@H](C)CC)[C@@H](C)CC)C(=O)N[C@@H](C)C(=O)N[C@@H](CCC(=O)O)C(=O)N[C@H](C(N)=O)C(C)C` [compound 232] (H-[NMeI]VLSLDVPIGLLQILLRQARARAAREQAK([AEEA-AEEA-γGlu-γGlu-C20 diacid])[Aib]NAEI[Nle]AEV-NH2), the figures for the EC50 at hCRHR2 (setting [1]) and at hCRHR1 (setting [2]) were 0.158 nM and 50100 nM, respectively.

Take `CC[C@H](C)[C@H](N)C(=O)N[C@H](C(=O)N[C@@H](CC(C)C)C(=O)N[C@@H](CO)C(=O)N[C@@H](CC(C)C)C(=O)N[C@@H](CC(=O)O)C(=O)N[C@H](C(=O)N1CCC[C@H]1C(=O)N[C@H](C(=O)NCC(=O)N[C@@H](CC(C)C)C(=O)N[C@@H](CC(C)C)C(=O)N[C@@H](CCC(N)=O)C(=O)N[C@H](C(=O)N[C@@H](CC(C)C)C(=O)N[C@@H](CC(C)C)C(=O)N[C@@H](CCC(=O)O)C(=O)N[C@@H](CCC(N)=O)C(=O)N[C@@H](C)C(=O)N[C@@H](CCCNC(=N)N)C(=O)N[C@@H](C)C(=O)N[C@@H](CCCNC(=N)N)C(=O)N[C@@H](C)C(=O)N[C@@H](C)C(=O)N[C@@H](CCCNC(=N)N)C(=O)N[C@@H](CCC(=O)O)C(=O)N[C@@H](CCCNC(=N)N)C(=O)N[C@@H](C)C(=O)N[C@@H](CCCCNC(=O)COCCOCCNC(=O)COCCOCCNC(=O)CC[C@H](NC(=O)CC[C@H](NC(=O)CCCCCCCCCCCCCCCCCCC(=O)O)C(=O)O)C(=O)O)C(=O)N[C@H](C(=O)N[C@@H](CC(N)=O)C(=O)N[C@@H](C)C(=O)N[C@@H](CCC(=O)O)C(=O)N[C@H](C(=O)N[C@@H](CC(C)C)C(=O)N[C@@H](C)C(=O)N[C@@H](CCC(=O)O)C(=O)N[C@H](C(N)=O)C(C)C)[C@@H](C)CC)[C@@H](C)O)[C@@H](C)CC)[C@@H](C)CC)C(C)C)C(C)C` [compound 66] (H-IVLSLDVPIGLLQILLEQARARAARERAK([AEEA-AEEA-γGlu-γGlu-C20 diacid])TNAEILAEV-NH2): the EC50 was 0.316 nM on hCRHR2 and 50100 nM at hCRHR1.
